Measured values: ChEMBL document CHEMBL1201862, “PubChem BioAssay data set” (2004)
Activity calls are given as the source filed them.

Legend:
[1] = target: Dual specificity protein phosphatase 3 (Homo sapiens, UniProt P51452); experiment: VHR phosphatase inhibition, dose response, selectivity assay for STEP inhibitor project, biochemical (AID 602374); assay type: functional; settings: read-out: IC50_Mean
[2] = target: T1, Tyrosine-protein phosphatase non-receptor type 11 (Homo sapiens, UniProt Q06124); experiment: PTPN11 enzyme inhibitors – biochemical, selectivity assay for STEP inhibitor project, dose response (AID 602367); assay type: functional; settings: read-out: IC50_Mean
T1 sequence (Q06124 whole entry): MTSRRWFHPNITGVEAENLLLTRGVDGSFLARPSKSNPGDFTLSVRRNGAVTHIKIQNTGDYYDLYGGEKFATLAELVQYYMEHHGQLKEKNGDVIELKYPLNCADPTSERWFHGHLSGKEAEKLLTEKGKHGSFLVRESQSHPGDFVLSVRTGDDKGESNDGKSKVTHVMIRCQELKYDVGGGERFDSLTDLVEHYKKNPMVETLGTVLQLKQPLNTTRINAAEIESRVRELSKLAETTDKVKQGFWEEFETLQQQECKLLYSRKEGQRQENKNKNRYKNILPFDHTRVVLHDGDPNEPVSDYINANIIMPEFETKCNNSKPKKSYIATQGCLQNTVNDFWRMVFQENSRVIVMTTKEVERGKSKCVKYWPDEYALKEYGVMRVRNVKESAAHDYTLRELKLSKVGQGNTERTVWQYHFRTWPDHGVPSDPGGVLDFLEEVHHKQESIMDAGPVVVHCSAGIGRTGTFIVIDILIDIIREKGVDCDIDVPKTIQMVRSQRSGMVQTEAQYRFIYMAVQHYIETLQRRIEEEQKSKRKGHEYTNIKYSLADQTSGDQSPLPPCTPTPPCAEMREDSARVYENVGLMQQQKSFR

[3] = target: T2, Tyrosine-protein phosphatase non-receptor type 5 (Homo sapiens, UniProt P54829); experiment: PTPN5 enzyme inhibition – biochemical, fluorescence intensity, uHTS hits, confirmation (AID 602372); assay type: functional; settings: read-out: IC50_Mean
T2 sequence (P54829 whole entry): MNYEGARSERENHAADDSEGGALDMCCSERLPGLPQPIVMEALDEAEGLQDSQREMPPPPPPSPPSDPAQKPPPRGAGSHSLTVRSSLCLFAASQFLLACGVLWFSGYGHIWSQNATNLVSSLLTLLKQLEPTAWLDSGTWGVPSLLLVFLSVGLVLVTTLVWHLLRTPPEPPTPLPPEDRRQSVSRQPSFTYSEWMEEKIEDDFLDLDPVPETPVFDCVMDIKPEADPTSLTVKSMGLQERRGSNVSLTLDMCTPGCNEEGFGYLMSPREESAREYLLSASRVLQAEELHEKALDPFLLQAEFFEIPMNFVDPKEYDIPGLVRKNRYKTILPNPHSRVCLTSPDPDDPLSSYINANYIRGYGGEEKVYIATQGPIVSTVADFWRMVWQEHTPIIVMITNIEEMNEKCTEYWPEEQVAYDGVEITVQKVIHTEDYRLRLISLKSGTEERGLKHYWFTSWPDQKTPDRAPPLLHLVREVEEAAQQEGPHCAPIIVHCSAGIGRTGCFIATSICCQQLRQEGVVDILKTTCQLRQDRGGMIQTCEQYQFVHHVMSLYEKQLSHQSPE

[4] = target: T3, Short transient receptor potential channel 4 (Mus musculus, UniProt Q9QUQ5); experiment: calcium entry via TRPC4 opening agents – cell-based, HEK293 TRPC4/mu-opioid, Fluo-4 calcium, dose response (AID 434937); assay type: functional
T3 sequence (Q9QUQ5 whole entry): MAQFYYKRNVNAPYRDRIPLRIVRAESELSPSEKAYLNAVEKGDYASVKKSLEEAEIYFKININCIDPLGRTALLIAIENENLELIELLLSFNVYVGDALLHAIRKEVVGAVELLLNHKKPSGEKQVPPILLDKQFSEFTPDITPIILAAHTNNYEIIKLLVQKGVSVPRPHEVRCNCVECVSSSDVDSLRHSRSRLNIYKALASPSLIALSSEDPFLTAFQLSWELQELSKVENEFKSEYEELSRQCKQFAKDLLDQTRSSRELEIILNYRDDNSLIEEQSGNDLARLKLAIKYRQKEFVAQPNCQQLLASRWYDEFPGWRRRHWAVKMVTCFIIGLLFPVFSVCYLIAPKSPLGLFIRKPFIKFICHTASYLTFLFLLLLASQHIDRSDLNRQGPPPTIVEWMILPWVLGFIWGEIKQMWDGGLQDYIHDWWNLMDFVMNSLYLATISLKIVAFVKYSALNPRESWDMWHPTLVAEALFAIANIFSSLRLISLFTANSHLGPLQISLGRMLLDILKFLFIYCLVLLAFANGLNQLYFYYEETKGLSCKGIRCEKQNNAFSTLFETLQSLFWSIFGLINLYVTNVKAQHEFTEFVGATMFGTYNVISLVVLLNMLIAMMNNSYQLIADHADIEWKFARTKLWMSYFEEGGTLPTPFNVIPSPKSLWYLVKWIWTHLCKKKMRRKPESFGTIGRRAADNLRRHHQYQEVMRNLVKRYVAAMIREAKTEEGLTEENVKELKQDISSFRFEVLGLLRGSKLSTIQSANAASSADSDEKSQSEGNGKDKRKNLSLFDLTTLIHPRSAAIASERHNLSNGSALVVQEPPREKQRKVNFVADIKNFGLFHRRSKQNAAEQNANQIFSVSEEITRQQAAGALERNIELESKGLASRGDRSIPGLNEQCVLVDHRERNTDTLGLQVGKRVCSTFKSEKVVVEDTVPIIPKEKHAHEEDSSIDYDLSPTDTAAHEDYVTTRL

[5] = target: T4, Small ubiquitin-related modifier 1 (Homo sapiens, UniProt P63165); experiment: SUMO1 protein interaction blockers, potency – biochemical, fluorescence polarization, uHTS hits, dose response (AID 624382); assay type: functional; settings: read-out: IC50_Mean
[6] = target: T4, Small ubiquitin-related modifier 1; experiment: SUMO1 protein-protein binding blockers, potency – biochemical, FRET, dose response (AID 624383); assay type: functional; settings: read-out: IC50_Mean
[7] = target: Eukaryotic translation initiation factor 4E (Mus musculus, UniProt P63073); experiment: blockers of eIF4G binding by eIF4E – biochemical, TR-FRET, dose response (AID 855); assay type: functional;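 further: potency for disrupting eIF4E binding to eIF4GI seen as loss of FRET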
[8] = target: T5, Type-1 angiotensin II receptor (Homo sapiens, UniProt P30556); experiment: antagonism of angiotensin II type 1 receptor – cell-based, uHTS hits, selectivity assay for APJ receptor antagonist project, dose response (AID 463214); assay type: functional;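 further: antagonist potency against angiotensin II stimulated AT1 response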
T5 sequence (P30556 whole entry): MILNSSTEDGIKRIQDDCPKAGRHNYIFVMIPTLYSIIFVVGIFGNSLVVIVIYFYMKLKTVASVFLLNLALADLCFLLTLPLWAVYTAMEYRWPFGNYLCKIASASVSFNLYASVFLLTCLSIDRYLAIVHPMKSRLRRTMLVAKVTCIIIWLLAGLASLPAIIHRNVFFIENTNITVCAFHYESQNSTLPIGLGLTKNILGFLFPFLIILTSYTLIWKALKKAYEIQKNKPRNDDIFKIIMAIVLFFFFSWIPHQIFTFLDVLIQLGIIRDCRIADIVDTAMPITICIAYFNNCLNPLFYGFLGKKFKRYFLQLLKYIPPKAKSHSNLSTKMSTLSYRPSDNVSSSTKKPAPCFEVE

Beta-galactosidase = Beta-galactosidase (Escherichia coli, UniProt Q8VNN2); experiment: PubChem AID 485352; assay type: functional
[9] = target: Glucose-6-phosphate 1-dehydrogenase (Homo sapiens, UniProt P11413); experiment: inhibition of Homo sapiens G6PD, dose series – biochemical, fluorescence, selectivity assay for P. falciparum G6PD inhibitor project, dose response (AID 504792); assay type: functional
Melanocortin receptor 4 = Melanocortin receptor 4 (Homo sapiens, UniProt P32245); assay type: functional, cell-based;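 further: Cell-based assay with luminescence read-out, confirmatory dose-response testing for agonist activity of biased ligands at MC4R; human U2OS cells with tagged receptor and beta-arrestin; potency of agonists that increase receptor coupling to beta-arrestin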
H4 = experiment: Luminescence Cell-Based Dose Response HTS to Identify Activators of 5'UTR Stem-Loop Driven Prion Protein mRNA Translation in H4 Neuroglioblastoma Cells. [Related pubchem assays: 1829 (Project Summary), 1814 (Primary HTS)]; assay type: functional; settings: Homo sapiens
[10] = Luminescence Cell-Based Dose Response HTS to Identify Activators of Luciferase Translation or Activity in H4 […] Cells. [Related pubchem assays: 1829 (Project Summary), 1814 (Primary HTS)]; assay type: functional
[11] = target: Dual specificity tyrosine-phosphorylation-regulated kinase 1A (Rattus norvegicus, UniProt Q63470); assay type: biochemical, Homo sapiens
H9c2 = experiment: cells; assay type: functional, cell-based; settings: Rattus norvegicus, H9c2, Myocardium;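 further: confirmatory concentration-response retest of ultra-high-throughput screening hits for modulation of myocardial damage; cell death induced by hydrogen peroxide oxidative stress; compound pretreatment for 60 min then peroxide exposure for 2 h; potency is for protecting the cells against peroxide damage rather than for killing them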
Streptococcus = experiment: GAS UMAA2166 growth inhibition – luminescence, BacTiterGlo, counter-screen for streptokinase expression inhibitor project, dose response (AID 1915); assay type: functional, organism-based;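 further: potency for reduction of bacterial viability or growth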
Prothrombin = Prothrombin (Homo sapiens, UniProt P00734); experiment: Thrombin 1536 HTS Dose Response Confirmation. [Related pubchem assays: 1046 (Thrombin 1536 HTS; hits were confirmed in this assay)]; assay type: functional
Streptokinase A = target: T6, Streptokinase A (Streptococcus pyogenes serotype M1, UniProt P10520); experiment: viability-normalized secreted streptokinase activity reduction – plasminogen activation absorbance, OD405, dose response (AID 1914); assay type: functional, Streptococcus pyogenes M1 GAS;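 further: secreted streptokinase activity via plasminogen activation per viability signal from cell pellet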
T6 sequence (P10520 whole entry): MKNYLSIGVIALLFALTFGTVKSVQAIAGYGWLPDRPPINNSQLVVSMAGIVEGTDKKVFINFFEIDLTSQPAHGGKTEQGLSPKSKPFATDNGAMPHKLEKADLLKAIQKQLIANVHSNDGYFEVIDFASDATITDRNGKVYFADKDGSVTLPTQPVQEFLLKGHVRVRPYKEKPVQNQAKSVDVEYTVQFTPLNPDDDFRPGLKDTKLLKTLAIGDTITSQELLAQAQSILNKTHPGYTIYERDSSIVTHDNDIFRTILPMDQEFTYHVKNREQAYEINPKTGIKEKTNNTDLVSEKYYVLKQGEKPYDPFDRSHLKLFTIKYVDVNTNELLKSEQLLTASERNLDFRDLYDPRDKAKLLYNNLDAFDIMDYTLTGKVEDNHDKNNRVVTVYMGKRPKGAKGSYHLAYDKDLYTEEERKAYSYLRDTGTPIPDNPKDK

[12] = test system: Streptococcus sp. 'group A'; experiment: Streptococcus pyogenes SK(-)GAS viability under kanamycin – luminescence, BacTiterGlo, confirmation, counter-screen for streptokinase expression inhibitor project, dose response (AID 1900); assay type: functional, organism-based
[13] = target: FAD-linked sulfhydryl oxidase ALR (Homo sapiens, UniProt P55789); experiment: ALR-catalysed DTT oxidation blockers – biochemical, H2O2 detection, luminescence, cherry-pick, dose response (AID 493248)
Sequence of FAD-linked sulfhydryl oxidase ALR (P55789 whole entry): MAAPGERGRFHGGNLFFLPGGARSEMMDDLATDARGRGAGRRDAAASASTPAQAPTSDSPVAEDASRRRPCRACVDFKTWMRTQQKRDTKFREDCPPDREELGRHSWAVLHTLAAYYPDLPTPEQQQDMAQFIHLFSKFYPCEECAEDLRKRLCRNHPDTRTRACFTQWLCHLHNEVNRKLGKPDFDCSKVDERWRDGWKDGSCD

Sequence of Eukaryotic translation initiation factor 4E (P63073 whole entry): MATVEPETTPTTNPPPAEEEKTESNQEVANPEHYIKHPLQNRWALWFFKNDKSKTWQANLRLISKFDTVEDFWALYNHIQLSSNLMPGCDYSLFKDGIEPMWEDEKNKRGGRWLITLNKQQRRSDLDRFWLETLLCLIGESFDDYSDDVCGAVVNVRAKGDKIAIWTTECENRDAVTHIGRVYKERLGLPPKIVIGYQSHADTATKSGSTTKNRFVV
T4 sequence (P63165 whole entry): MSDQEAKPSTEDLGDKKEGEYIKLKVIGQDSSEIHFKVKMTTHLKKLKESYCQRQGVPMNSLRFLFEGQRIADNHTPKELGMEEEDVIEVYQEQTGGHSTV
Sequence of Beta-galactosidase (Q8VNN2 whole entry): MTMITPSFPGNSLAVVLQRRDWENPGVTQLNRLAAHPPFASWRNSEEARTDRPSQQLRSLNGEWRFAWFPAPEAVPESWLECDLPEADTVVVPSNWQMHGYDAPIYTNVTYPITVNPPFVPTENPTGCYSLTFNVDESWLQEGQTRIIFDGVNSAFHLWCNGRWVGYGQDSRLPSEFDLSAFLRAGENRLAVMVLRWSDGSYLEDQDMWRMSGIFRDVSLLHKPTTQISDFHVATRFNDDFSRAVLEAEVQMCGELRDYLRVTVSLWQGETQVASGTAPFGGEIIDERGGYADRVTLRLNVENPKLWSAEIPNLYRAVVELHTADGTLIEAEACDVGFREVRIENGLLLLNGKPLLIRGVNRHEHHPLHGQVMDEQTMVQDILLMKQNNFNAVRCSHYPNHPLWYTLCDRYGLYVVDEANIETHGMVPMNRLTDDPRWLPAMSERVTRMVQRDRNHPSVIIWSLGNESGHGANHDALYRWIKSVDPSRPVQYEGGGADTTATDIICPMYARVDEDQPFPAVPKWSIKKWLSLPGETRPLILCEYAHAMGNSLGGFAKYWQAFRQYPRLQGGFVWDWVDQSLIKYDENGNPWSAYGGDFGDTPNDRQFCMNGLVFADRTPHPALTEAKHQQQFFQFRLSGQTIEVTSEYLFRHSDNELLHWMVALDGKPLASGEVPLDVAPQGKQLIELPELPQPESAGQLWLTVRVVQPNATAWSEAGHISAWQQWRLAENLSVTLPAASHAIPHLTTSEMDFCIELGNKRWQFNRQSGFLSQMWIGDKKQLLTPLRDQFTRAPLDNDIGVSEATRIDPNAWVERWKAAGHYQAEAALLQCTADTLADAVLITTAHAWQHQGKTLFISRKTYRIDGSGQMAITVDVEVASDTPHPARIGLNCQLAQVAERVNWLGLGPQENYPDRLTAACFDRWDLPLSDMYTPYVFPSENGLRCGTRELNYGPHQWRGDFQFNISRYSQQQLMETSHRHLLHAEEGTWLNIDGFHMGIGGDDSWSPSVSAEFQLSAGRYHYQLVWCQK
Sequence of Melanocortin receptor 4 (P32245 whole entry): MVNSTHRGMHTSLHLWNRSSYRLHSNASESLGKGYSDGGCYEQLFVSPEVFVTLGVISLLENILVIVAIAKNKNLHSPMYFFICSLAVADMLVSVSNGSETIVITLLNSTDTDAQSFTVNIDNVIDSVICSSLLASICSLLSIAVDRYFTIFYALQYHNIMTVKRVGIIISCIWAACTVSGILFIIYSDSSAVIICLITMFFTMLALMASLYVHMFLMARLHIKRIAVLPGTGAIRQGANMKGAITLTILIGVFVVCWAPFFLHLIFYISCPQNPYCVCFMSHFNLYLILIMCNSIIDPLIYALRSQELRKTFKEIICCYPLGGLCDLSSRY
Sequence of Glucose-6-phosphate 1-dehydrogenase (P11413 whole entry): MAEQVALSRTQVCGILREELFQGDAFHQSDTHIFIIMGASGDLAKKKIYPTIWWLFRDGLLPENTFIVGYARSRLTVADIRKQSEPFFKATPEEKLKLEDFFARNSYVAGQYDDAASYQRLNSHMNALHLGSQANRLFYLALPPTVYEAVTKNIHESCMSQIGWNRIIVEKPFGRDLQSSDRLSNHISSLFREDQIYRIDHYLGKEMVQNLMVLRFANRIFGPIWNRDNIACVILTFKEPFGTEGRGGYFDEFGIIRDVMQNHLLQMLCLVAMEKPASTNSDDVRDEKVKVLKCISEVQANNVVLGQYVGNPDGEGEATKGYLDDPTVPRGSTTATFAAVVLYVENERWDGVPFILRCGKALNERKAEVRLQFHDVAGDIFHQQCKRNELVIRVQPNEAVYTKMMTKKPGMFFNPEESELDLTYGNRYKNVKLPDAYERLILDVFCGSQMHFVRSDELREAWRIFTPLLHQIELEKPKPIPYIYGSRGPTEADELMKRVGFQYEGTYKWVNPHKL
Sequence of Dual specificity protein phosphatase 3 (P51452 whole entry): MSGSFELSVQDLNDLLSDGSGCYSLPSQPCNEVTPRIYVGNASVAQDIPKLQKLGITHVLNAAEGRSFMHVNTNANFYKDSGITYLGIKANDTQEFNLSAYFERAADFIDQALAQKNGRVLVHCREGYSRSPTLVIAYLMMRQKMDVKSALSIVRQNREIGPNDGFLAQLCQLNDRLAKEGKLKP

For CCOC(=O)N1CCC(N(CCN(C)C)C(=S)Nc2cc(Cl)ccc2C)CC1, the IC50 [1] was 2.14 µM (active), the IC50 [2] was 11.8 µM (active) and the IC50 [3] was 32.2 µM (inactive).

With COc1ccc(C2NCCc3[nH]cnc32)cc1 (configuration not stated) the EC50 [4] was 3.35 µM (active).

In the case of Cc1ccc(S(=O)(=O)N2[C@@H](c3ccc(C(C)(C)C)cc3)C(C(=O)O)=CC[C@H]2c2ccc(Cl)c(Cl)c2)cc1, the IC50 [5] is reported as > 66.6 µM (inactive) and the IC50 [6] is reported as 18.8 µM (active).

With Cc1c(-n2cccc2C=O)cccc1[N+](=O)[O-] the IC50 [7] was 50 µM (inactive).

In the case of Cc1ccc(Cl)cc1N1CCN(CCN)CC1, the EC50 [4] is reported as 0.211 µM (active).

For CC(=O)Nc1ccc(S(=O)(=O)NCCSc2ccccn2)cc1, the IC50 [7] was > 64 µM (inactive).

With CCOC(=O)c1c(C2COc3ccccc3O2)csc1NC(=O)c1ccco1 (configuration not stated) the IC50 [8] was > 40 µM (not active), the EC50 (Beta-galactosidase) was > 40 µM (inactive) and the IC50 [9] was > 80 µM (inactive).

In the case of CCc1ccc(C(=O)NNc2ccc(C)c(Cl)c2)cc1, the IC50 [8] is reported as 2.55 µM (active) and the EC50 (Beta-galactosidase) is reported as > 40 µM (inactive).

For CC(=O)Nc1cc(-c2ccc(S(C)(=O)=O)cc2)cn2c(-c3ccc(F)c(Cl)c3)cnc12, the EC50 (Melanocortin receptor 4) was > 89.2 µM (inactive).

In the case of CCc1ccc(C2CC(c3ccc(F)cc3)Nc3nc(N)nn32)cc1 (configuration not stated), the EC50 (Melanocortin receptor 4) is reported as 48.1 µM (inactive).

In the case of O=C(Cc1ccccc1)OCn1nnc2ccccc2c1=O, the IC50 [7] is reported as > 64 µM (inactive).

In the case of O=C(Nc1nc2ccc([N+](=O)[O-])cc2s1)C1CCCO1 (configuration not stated), the EC50 (H4) is reported as > 120 µM (not active), the EC50 [10] is reported as 0.224 µM (active) and the AC50 [11] is reported as 0.577 µM (active).

For CC(=O)Nc1cc(-c2ccccc2)cn2c(-c3cccc(C(C)=O)c3)cnc12, the IC50 (H9c2) was > 79 µM (inactive) and the EC50 (Melanocortin receptor 4) was > 89.2 µM (inactive).

For O=C(Cn1cn[n+](CC(=O)c2ccc(Cl)cc2Cl)c1)c1ccc([N+](=O)[O-])cc1, the EC50 (Streptococcus) was > 150 µM (not active), the IC50 (Prothrombin) was 1.7 µM (active) and the EC50 (Streptokinase A) was 21.4 µM (active). For the same molecule, the EC50 [12] was 11.3 µM (active).

With CCCCN(CC)CCCNC(=O)Cn1nc(Cc2cccnc2)c2ccccc2c1=O the EC50 [4] was 1.88 µM (active).

With O=C(O)C1=CCC=CC1C(=O)O (configuration not stated) the IC50 [5] was > 66.6 µM (inactive) and the IC50 [6] was 5.69 µM (active).

For COc1ccccc1CC(=O)N1CCN(CCc2ccccc2)CC1, the EC50 [4] was 4.22 µM (active).

For CN(C)/C=N/c1nc(-c2ccc3c(c2)OCO3)cs1, the AC50 [13] was 10.9 µM (active) and the AC50 [11] was 3.64 µM (active).

For O=C(Cc1ccc(Cl)cc1)OCc1nnc(-c2ccccc2)o1, the IC50 [7] was 50 µM (inactive).

In the case of COc1ccc2c(Cl)c(C(=O)NCc3ccco3)sc2c1, the AC50 [11] is reported as 0.273 µM (active).

With COc1ccc(CSCCN)cc1Cl the EC50 [4] was 5.96 µM (active).

For COc1cccc(NC(=S)N/N=C2\CC3CCC2(C)C3(C)C)c1 (configuration not stated), the IC50 [8] was 27.4 µM (not active) and the EC50 (Beta-galactosidase) was > 40 µM (inactive).
